From US11034666B2, “Anti-inflammatory and antitumor 2-oxothiazoles and 2-oxothiophenes compounds” (Avexxin AS, priority 2013, dated 2021) come the findings set out here.

Data set [1] has as its system PGE2. As to the kind of experiment: PGE2-assay (Tables 2 and 4). In kind it is cell-based. The settings on record: Table 2; head says % inhibition, cells print μM. An excerpt: Experimental procedures suitable for the formation and testing of these compounds can be found in WO2011/039365 as well as references cited therein.
The target of data set [2] is T1, human GVIA iPLA2 (Homo sapiens, UniProt O60733).
T1 sequence (O60733 1-806): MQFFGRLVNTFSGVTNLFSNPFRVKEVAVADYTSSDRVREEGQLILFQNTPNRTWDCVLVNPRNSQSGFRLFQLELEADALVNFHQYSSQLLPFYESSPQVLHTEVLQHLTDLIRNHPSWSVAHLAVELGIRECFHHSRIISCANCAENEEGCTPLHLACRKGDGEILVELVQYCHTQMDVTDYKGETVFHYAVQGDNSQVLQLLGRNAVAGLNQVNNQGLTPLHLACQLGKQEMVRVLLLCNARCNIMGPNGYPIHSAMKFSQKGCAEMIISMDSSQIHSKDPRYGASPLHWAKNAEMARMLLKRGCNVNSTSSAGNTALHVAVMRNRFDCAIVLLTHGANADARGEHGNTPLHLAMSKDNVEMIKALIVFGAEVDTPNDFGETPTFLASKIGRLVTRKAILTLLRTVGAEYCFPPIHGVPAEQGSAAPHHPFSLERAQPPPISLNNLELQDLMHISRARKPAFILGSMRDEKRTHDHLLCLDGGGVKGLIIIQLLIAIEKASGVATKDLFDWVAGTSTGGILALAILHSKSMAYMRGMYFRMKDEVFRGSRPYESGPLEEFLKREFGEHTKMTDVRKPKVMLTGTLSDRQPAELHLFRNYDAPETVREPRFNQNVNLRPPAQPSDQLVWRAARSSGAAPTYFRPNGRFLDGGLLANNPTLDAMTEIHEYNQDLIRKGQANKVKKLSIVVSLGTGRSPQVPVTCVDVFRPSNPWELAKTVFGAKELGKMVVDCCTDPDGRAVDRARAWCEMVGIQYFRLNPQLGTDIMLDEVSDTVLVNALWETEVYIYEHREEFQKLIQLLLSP
As to the kind of experiment: In vitro mixed micelle assay, GVIA iPLA2. It counts as biochemical. The settings on record: for inhibition at 0.091 mole fraction: mixed micelles, 0.091 mole fraction of inhibitor, Table 6, read-out: GVIA iPLA2 % Inhib. The protocol:
At first, the percent of inhibition for each PLA2 enzyme at 0.091 mole fraction of each inhibitor was determined. […] The XI(50) is the mole fraction of the inhibitor in the total substrate interface required to inhibit the enzyme activity by 50%. […] (ii) GVI iPLA2 substrate mixed-micelles were composed of 400 μM Triton X-100, 98.3 μM PAPC, and 1.7 μM ^14C-labeled PAPC in buffer containing 100 mM HEPES, pH 7.5, 2 mM ATP, and 4 mM DTT; (iii) GV sPLA2 substrate mixed-micelles were composed of 400 μM Triton X-100, 98.3 μM PAPC, and 1.7 μM ^14C-labeled PAPC in buffer containing 50 mMTris, pH 8.0, and 5 mM […] CaCl2.

The test system of data set [3] is MAS98.12 xenograft. The experiment in a line: Patient-derived basal-like breast cancer xenograft, long-term treatment. It counts as in vivo, mouse. The protocol: As described more fully below, we conducted a study in a patient-derived xenograft model of basal-like breast cancer, which is responsive to […], is highly vascularised and has a high expression of cPLA2. The mice received 30 mg Compound A/kg bw by ip. injection daily for a 7 days, then every second day for 14 more days. A group of control mice received DMSO only. Tumor volumes were measured throughout the study period.
Mouse model: MAS98.12. This model is established from a primary breast carcinoma at the Institute for Cancer Research, OUS [10]. The MR Cancer Group has previously characterised this model both with respect to metabolic profile, vascularisation, response to antiangiogenic treatment and response to PI3K inhibition. Treatment was initiated when the xenograft tumors had reached a volume of 83±51 mm3 (tumor volume=d1×d2×[…]). The majority of mice had bilateral tumors.
Mice received 30 mg/kg bw COMPOUND A in 50 μl DMSO, through intraperitoneal injection. Control groups received volume-matched, drug-free DMSO injections. Tumor volume measured with electronic callipers from day −3 until the end of the experiment (Day 19).
Arm 2: Long-term treatment One group (n=6, 11 tumors) treated with COMPOUND A daily for 7 days, then every 2nd day for the remainder of the study. Controls (n=6, 10 tumors) treated with drug-free DMSO according to the same protocol. […] Throughout the study, the tumor volume was measured every 2-3 days, and the body weight of the mice was monitored regularly.

A word on the IC50: it is the concentration that gives 50% inhibition. A low value points to inhibition by little substance. As to `CCCCCCCCc1ccc(OCC(=O)c2nc(C(=O)OC)cs2)cc1` [Compound A, Methyl 2-(2-(4-octylphenoxy)acetyl)thiazole-4-carboxylate], in data set [1], the IC50 is about 0.75 µM. Also, in data set [2] (Tables 2 and 4), the “GVIA iPLA2 % Inhibition” value was 86.4%. The inhibition at 0.091 mole fraction in data set [2] is 86%. For the same molecule, the “tumor volume as % of the control tumors” value in data set [3] (30 mg/kg bw ip daily for 7 days, then every second day for 14 more days, end of the study) worked out at 36%. Moreover, the “tolerability (in words)” value in data set [3] (30 mg/kg ip, long-term treatment) is given as “well tolerated with no overt adverse effects”. This molecule also registered a body weight in data set [3] (30 mg/kg ip, Day 5) of 24 ± 3 g. In data set [3] (30 mg/kg ip, Day 19), this molecule had a body weight of 27 ± 3 g and a maximal tumor diameter of 10.5 mm. Besides, the “effect on tumor growth (in words)” value in data set [3] (30 mg/kg ip, FIG. 1) is listed as “strong inhibitory effect on tumor growth”. Further, the tumor volume in data set [3] (30 mg/kg ip, end of the study (Day 19), control 759±401) is 265±138 mm^3.

By melting point is commonly meant the temperature of the solid-liquid transition. For `O=C(COc1ccc(-c2ccccc2)cc1)c1nccs1` [Compound B, 2-(Biphenyl-4-yloxy)-1-(thiazol-2-yl)ethanone], the melting point lay in the range of 130 to 133 °C. The same molecule registered an IC50 in data set [1] of about 6 µM. In data set [2], the inhibition at 0.091 mole fraction came to 23%.

`O=C(COc1ccc(F)cc1)c1nccs1` [Compound C, 2-(4-Fluorophenoxy)-1-(thiazol-2-yl)ethanone]: the melting point fell in the range of 74 to 77 °C. Also, in data set [2], the inhibition at 0.091 mole fraction is 5%.

As for `O=C(COc1ccccc1)c1nccs1` [Compound D, 2-Phenoxy-1-(thiazol-2-yl)ethanone], the melting point lay within 77 to 79 °C. The inhibition at 0.091 mole fraction in data set [2] was 13%.

Consider `CCCCCCCCc1ccc(OCC(=O)c2nccs2)cc1` [Compound T, 2-(4-Octylphenoxy)-1-(thiazol-2-yl)ethanone], for which the inhibition at 0.091 mole fraction in data set [2] came out at 67%.

Consider `CCCCCCCCCCCCOCC(=O)c1nc(C(=O)OCC)cs1` [Compound W, Ethyl 2-(2-(dodecyloxy)acetyl)thiazole-4-carboxylate], for which, in data set [2], the inhibition at 0.091 mole fraction came to 92%.

`CCCCCCCCCCCCOCC(=O)c1nc(CC(=O)OCC)cs1` [Compound X, Ethyl 2-(2-(2-(dodecyloxy)acetyl)thiazol-4-yl)acetate]: the inhibition at 0.091 mole fraction in data set [2] was found to be 91%.

For the molecule `CCCCCCCCc1ccc(OCC(=O)c2nc(CC(=O)OCC)cs2)cc1` [Compound Y, Ethyl 2-(2-(2-(4-octylphenoxy)acetyl)thiazol-4-yl)acetate], the inhibition at 0.091 mole fraction in data set [2] turned out to be 76%.
